Patent US20240181000A1, “LGG-DERIVED PEPTIDES AND METHODS OF USE THEREOF” (Ohio State Innovation Foundation, priority 2021, published 2024)
No end group written: not given here.

Experiments:
S. typhimurium = experiment: P1 and P2 in drinking water, S. typhimurium infected chickens; format: in vivo; settings: 100 mg/L in drinking water, 7 dpi
Description: Both the P1 and P2 at 200 mg/L and 100 mg/L concentrations reduced S. typhimurium colonization by 0.78 (p<0.05) and 0.69 (p<0.05) log CFU/gm, respectively.

APEC O78 membrane = experiment: Bacterial cytological profiling (confocal microscopy); format: cell-based, E. coli; settings: 5×MIC, 3 h
Description: Bacterial cytological profiling (BCP): To identify the mode of action (MOA) of peptides (P1, P2, and P3), BCP approach was used as described previously. […] Following incubation, cultures were centrifuged, and bacteria was resuspended in 100 μL sterile water. FM4-64 (1 μg/mL; Invitrogen™ Molecular Probes™) and Syto-9 (5 μM; Invitrogen™ Molecular Probes™) stains were added to the bacterial cultures and incubated at 4° C. for 45 mins with shaking at 150 rpm. The stained bacteria were centrifuged, pelleted, and resuspended in 10 μL sterile water. The bacterial suspension (3 μL) was transferred onto glass slides containing thin layer of 1.2% agar and 20% LB media for confocal microscopy. Microscopy was performed using Leica TCS SP6 confocal scanning microscope (FM4-64-excitation 515 nm and emission 640 nm: Syto-9-excitation 485 nm and emission 498 nm) at Molecular and Cellular Imaging Center (MCIC), The Ohio State University (mcic.osu.edu/microscopy). Untreated bacterial culture was used as control.

APEC = experiment: Alanine scanning SAR, anti-APEC activity; format: cell-based, E. coli
Description: Structure-activity relationship (SAR) study: To identify the crucial amino acid residues required for the peptide activity, alanine scanning libraries of peptides (P1, P2, and P3) (www.genscript.com/alanine_scanning.html) were synthesized (Table 22) and tested for anti-APEC activity as described above. The anti-APEC activity of peptide analogues (SEQ ID NO: 67-84) was then compared with the original peptide and the relative importance (% growth inhibition by peptide analogue/% growth inhibition by original peptide×100%) of each AA residue of the peptide was determined.

ST membrane [1] = experiment: Transmission electron microscopy; format: cell-based, Salmonella enterica; settings: 10×MIC, 3 h
Description: ST was treated with 10× peptide MIC and incubated for 3 h.
Transmission electron microscopy: To further visually analyze the inhibitory effects of P1 and P2 on ST, transmission electron microscopy (TEM) was performed as described previously. […] After which, cells were fixed overnight with 3% glutaraldehyde and 2% paraformaldehyde at room temperature. Cells were then washed and postfixed with 1% osmium tetroxide (OsO4). The washed cells were then dehydrated, with graded ethanol, and embedded with Embed 812 kit (Electron Microscopy Sciences, Pa). Ultrathin (70 nm) sections were prepared on formvar-carbon coated grids and stained with uranyl acetate and lead citrate. Untreated ST was used as a control. TEM was conducted at MCIC using the Hitachi H-7500 microscope.

ST membrane [2] = experiment: Confocal microscopy (bacterial cytological profiling); format: cell-based, Salmonella enterica; settings: 5×MIC, 3 h
Description: Mode of action of peptides analyzed through confocal microscopy: To determine the mode of action of P1 and P2, bacterial cytological profiling was conducted using confocal microscopy as described in. […] Incubated bacteria cultures were then centrifuged and re-suspended in 100 μL sterile water. Following suspension, 1 μg/mL of FM4-64 (Invitrogen™ Molecular Probes™) and 5 μM Syto-9 (Invitrogen™ Molecular Probes™) stains were added and incubated for 45 mins […] with 150 rpm. After incubation, the samples were centrifuged, and bacteria was re-suspended in 10 μl sterile water. For microscopic analysis, 3 μL of bacterial suspension was added to glass slides with 1.2% agar and 20% LB media. Untreated ST bacterial culture was used as a control. Leica TCS SP6 confocal scanning microscope (Excitation/emission (nm); FM4-64 (515/640), SYTO-9 (485/498) was used at the Ohio State University's Molecular and Cellular Imaging Center (MCIC; mcic.osu.edu/microscopy).

OmpC = experiment: Immunoblot analysis; format: cell-based, E. coli; settings: densitometry
Description: (§1) Immunoblot analysis: To corroborate the findings of gene expression study, level of OmpC and MlaA proteins upon peptides (P1, P2, and P3) treatment was investigated as described previously. Peptides treated culture of APEC O78 was prepared as above and DMSO treated culture was used as control. Post-treatment, the fractions of cytoplasmic and membrane proteins was prepared using ultracentrifugation as previously described. The concentrations of fractionated membrane proteins were then normalized based on 280 nm and separated on a 12% SDS-PAGE. For immunoblot analysis, membrane proteins (25 μg) resolved on SDS-PAGE above were electrotransferred onto an Immuno-Blot® PVDF Membrane (Bio-Rad) and probed for OmpC and MlaA using anti-OmpC (1:2,000) (ThermoFisher Scientific) and anti-MlaA (1:15,000; Dr. Thomas J. Silhavy) polyclonal antibodies and goat anti-rabbit IgG HRP-conjugated secondary antibody (Sigma-Aldrich). The membrane was developed with Clarity Western ECL Substrate (Bio-Rad) and visualized in a FluorChem Q (proteinsimple) imager. The density of OmpC and MlaA proteins was quantified using ImageJ software.

MlaA = experiment: Immunoblot analysis; format: cell-based, E. coli; settings: densitometry
Description: as §1

[3] = system: Salmonella enterica subsp. enterica serovar Enteritidis (SE); format: cell-based; settings: No treatment
Description: MIC was determined by selecting peptide concentration at which there is no increased growth (no increase in OD), given indication of no ST growth. An independent repeat experiment was conducted.
Heat and protease tolerance of peptides: P1, P2, and P4 were heated for 6 minutes at 86° C. or treated with protease proteinase K, 200 μg/mL at 50° C. for 30 minutes. After which, the treated and/or heated peptides at their respective MICs were evaluated in the inhibition assay with Salmonella. The protocol from above was repeated in the Tecan with the same controls.
To analyze the perceived efficacy of arginine and lysine substitutes reported in previous studies, specific amino acid residues in P1 and P2 were replaced with lysine or arginine to test if the alliterations enhanced anti-Salmonella (ST and SE) activity. The MICs of the arginine or lysine substituted peptides ([…] (SEQ ID NO:37), […] (SEQ ID NO:38), […] (SEQ ID NO:39), KDENK (SEQ ID NO:41), PDEKK (SEQ ID NO:42), KDEKK (SEQ ID NO:43), KHTAPK (SEQ ID NO:45)) were determined as described early. Two independent experiments were conducted to ensure accuracy.

[4] = system: commensal and probiotic bacteria; experiment: Effect against beneficial microbes; format: cell-based; settings: at MICs
Description: Effect against beneficial microbes: Peptides (P1, P2, and P3) were tested against different commensal and probiotic bacteria to determine their specificity of activity as described previously. Peptides were added at their MICs to 100 μL of known concentration of bacterial cultures and cultures were incubated under required conditions. Following incubation, OD600 of cultures was measured to determine the effect of peptides on bacterial growth.

PDENK [Peptide P2, PDENK]
Reduction of S. typhimurium colonization in ceca (S. typhimurium): 0.69 log CFU/gm | APEC membrane in confocal microscopy (FM4-64/SYTO-9) (APEC O78 membrane): no or minimally visible APEC membrane | Relative importance of D and E in P2 (APEC): 97.1% | Relative importance of P, N and K in P2 (APEC): < 40% | ST membrane in TEM (ST membrane [1]): disruption of the membrane characterized by sloughed or flaccid appearance | ST membrane in confocal microscopy (FM4-64 stain) (ST membrane [2]): little to no red stain present | OmpC level lower than in untreated APEC (OmpC): 9.27 folds | MlaA level decreased vs untreated APEC (MlaA): 1.40 folds | MIC against SE [3]: 15 mM | Growth of Gram-negative beneficial bacteria, particularly E. coli [4]: inhibited | Growth of Gram-positive beneficial bacteria [4]: no effect
